How the values were obtained:
Homo sapiens [1] = assay: Effect on sleep parameter in insomnia patient assessed as sleep efficiency at 20 mg, po measured on night 28 by polysomnography; assay type: functional
[2] = Apparent permeability of the compound; assay type: physicochemical; settings: not told
Homo sapiens [3] = assay: Effect on sleep parameter in insomnia patient assessed as latency to persistent sleep time at 20 mg, po measured on night 1 by polysomnography; assay type: functional
Homo sapiens [4] = assay: Effect on sleep parameter in insomnia patient assessed as total sleep time at 20 mg, po measured on night 28 by polysomnography; assay type: functional
Homo sapiens [5] = assay: Effect on sleep parameter in insomnia patient assessed as sleep efficiency at 80 mg, po measured on night 1 by polysomnography; assay type: functional
Homo sapiens [6] = assay: Effect on sleep parameter in insomnia patient assessed as sleep efficiency at 40 mg, po measured on night 28 by polysomnography; assay type: functional
Homo sapiens [7] = assay: Effect on sleep parameter in insomnia patient assessed as wake after sleep onset time at 10 mg, po measured on night 28 by polysomnography; assay type: functional
Homo sapiens [8] = assay: Effect on sleep parameter in insomnia patient assessed as sleep efficiency at 40 mg, po measured on night 1 by polysomnography; assay type: functional
Homo sapiens [9] = assay: Effect on sleep parameter in insomnia patient assessed as wake after sleep onset time at 10 mg, po measured on night 1 by polysomnography; assay type: functional
Homo sapiens [10] = assay: Effect on sleep parameter in insomnia patient assessed as sleep efficiency at 20 mg, po measured on night 1 by polysomnography; assay type: functional
Homo sapiens [11] = assay: Effect on sleep parameter in insomnia patient assessed as total sleep time at 80 mg, po measured on night 28 by polysomnography; assay type: functional
[12] = Plasma protein binding in dog; assay type: ADME, cell-free, Canis lupus familiaris; settings: read-out: PPB (converted)
Homo sapiens [13] = assay: Effect on sleep parameter in insomnia patient assessed as total sleep time at 40 mg, po measured on night 28 by polysomnography; assay type: functional
Homo sapiens [14] = assay: Effect on sleep parameter in insomnia patient assessed as wake after sleep onset time at 40 mg, po measured on night 1 by polysomnography; assay type: functional
Homo sapiens [15] = assay: Effect on sleep parameter in insomnia patient assessed as total sleep time at 10 mg, po measured on night 28 by polysomnography; assay type: functional
Homo sapiens [16] = assay: Effect on sleep parameter in insomnia patient assessed as latency to persistent sleep time at 80 mg, po measured on night 28 by polysomnography; assay type: functional
Homo sapiens [17] = assay: Effect on sleep parameter in insomnia patient assessed as total sleep time at 80 mg, po measured on night 1 by polysomnography; assay type: functional
Homo sapiens [18] = assay: Effect on sleep parameter in insomnia patient assessed as latency to persistent sleep time at 40 mg, po measured on night 28 by polysomnography; assay type: functional
[19] = Tmax in human plasma; assay type: ADME, organism-based
Homo sapiens [20] = assay: Effect on sleep parameter in insomnia patient assessed as latency to persistent sleep time at 10 mg, po measured on night 28 by polysomnography; assay type: functional
Homo sapiens [21] = assay: Effect on sleep parameter in insomnia patient assessed as wake after sleep onset time at 20 mg, po measured on night 28 by polysomnography; assay type: functional
Homo sapiens [22] = assay: Effect on sleep parameter in insomnia patient assessed as total sleep time at 20 mg, po measured on night 1 by polysomnography; assay type: functional
Homo sapiens [23] = assay: Effect on sleep parameter in insomnia patient assessed as total sleep time at 40 mg, po measured on night 1 by polysomnography; assay type: functional
Homo sapiens [24] = assay: Effect on sleep parameter in insomnia patient assessed as latency to persistent sleep time at 10 mg, po measured on night 1 by polysomnography; assay type: functional
Homo sapiens [25] = assay: Effect on sleep parameter in insomnia patient assessed as wake after sleep onset time at 80 mg, po measured on night 1 by polysomnography; assay type: functional
Homo sapiens [26] = assay: Effect on sleep parameter in insomnia patient assessed as wake after sleep onset time at 20 mg, po measured on night 1 by polysomnography; assay type: functional
Rattus norvegicus [27] = assay: Effect on sleep parameter in po dosed rat by EEG analysis; assay type: functional
Homo sapiens [28] = assay: Effect on sleep parameter in insomnia patient assessed as latency to persistent sleep time at 20 mg, po measured on night 28 by polysomnography; assay type: functional
Homo sapiens [29] = assay: Effect on sleep parameter in insomnia patient assessed as total sleep time at 10 mg, po measured on night 1 by polysomnography; assay type: functional
Homo sapiens [30] = assay: Effect on sleep parameter in insomnia patient assessed as sleep efficiency at 80 mg, po measured on night 28 by polysomnography; assay type: functional
[31] = Terminal half life in human plasma; assay type: ADME, organism-based; settings: read-out: beta t1/2 (converted)
Homo sapiens [32] = assay: Effect on sleep parameter in insomnia patient assessed as latency to persistent sleep time at 80 mg, po measured on night 1 by polysomnography; assay type: functional
Homo sapiens [33] = assay: Effect on sleep parameter in insomnia patient assessed as wake after sleep onset time at 40 mg, po measured on night 28 by polysomnography; assay type: functional
Rattus norvegicus [34] = species on record: Rattus norvegicus; assay: Receptor occupancy at OX2R in rat brain assessed as drug level in plasma; assay type: functional
Homo sapiens [35] = assay: Effect on sleep parameter in insomnia patient assessed as wake after sleep onset time at 80 mg, po measured on night 28 by polysomnography; assay type: functional
Homo sapiens [36] = assay: Effect on sleep parameter in insomnia patient assessed as sleep efficiency at 10 mg, po measured on night 1 by polysomnography; assay type: functional
[37] = Clearance in iv dosed rat; assay type: ADME, organism-based; settings: in vivo
Canis familiaris = assay: Effect on sleep parameter in po dosed dog by EEG analysis; assay type: functional, Canis lupus familiaris
Homo sapiens [38] = assay: Effect on sleep parameter in insomnia patient assessed as sleep efficiency at 10 mg, po measured on night 28 by polysomnography; assay type: functional
Homo sapiens [39] = assay: Effect on sleep parameter in insomnia patient assessed as latency to persistent sleep time at 40 mg, po measured on night 1 by polysomnography; assay type: functional

SMILES: Cc1ccc(-n2nccn2)c(C(=O)N2CCN(c3nc4cc(Cl)ccc4o3)CC[C@H]2C)c1 [SUVOREXANT]
- Activity (Homo sapiens [1]): 10.4%
- Papp [2]: 37 ×10⁻⁶ cm/s
- Time (Homo sapiens [3]): -9.4 min
- Time (Homo sapiens [4]): 49.9 min
- Activity (Homo sapiens [5]): 12.9%
- Activity (Homo sapiens [6]): 7.8%
- Time (Homo sapiens [7]): -21.4 min
- Activity (Homo sapiens [8]): 10.8%
- Time (Homo sapiens [9]): -21.2 min
- Activity (Homo sapiens [10]): 7.6%
- Time (Homo sapiens [11]): 36.6 min
- fraction unbound [12]: 0.01
- Time (Homo sapiens [13]): 36.8 min
- Time (Homo sapiens [14]): -33.9 min
- Time (Homo sapiens [15]): 22.3 min
- Time (Homo sapiens [16]): -9.5 min
- Time (Homo sapiens [17]): 61.9 min
- Time (Homo sapiens [18]): -3.8 min
- Tmax [19]: 1.5 h
- Time (Homo sapiens [20]): -2.3 min
- Time (Homo sapiens [21]): -28.1 min
- Time (Homo sapiens [22]): 36.2 min
- Time (Homo sapiens [23]): 52.4 min
- Time (Homo sapiens [24]): -3.4 min
- Time (Homo sapiens [25]): -36.8 min
- Time (Homo sapiens [26]): -24.7 min
- Activity (Rattus norvegicus [27]): 10 mg/kg
- Time (Homo sapiens [28]): -22.3 min
- Time (Homo sapiens [29]): 25.1 min
- Activity (Homo sapiens [30]): 7.6%
- half-life [31]: 8 h
- Time (Homo sapiens [32]): -25.4 min
- Time (Homo sapiens [33]): -33.2 min
- Occ90 (Rattus norvegicus [34]): 1070 nM
- Time (Homo sapiens [35]): -28.9 min
- Activity (Homo sapiens [36]): 5.2%
- clearance [37]: 44 mL/min/kg
- Activity (Canis familiaris): 3 mg/kg
- Activity (Homo sapiens [38]): 4.7%
- Time (Homo sapiens [39]): -23.1 min
